According to patent US5554620A, “Substituted 6,11-ethano-6,11-dihydrobenzo[b] quinolizinium salts and compositions and methods of use thereof” (Sterling Winthrop Inc., priority 1994, dated 1996):

How the values were obtained:
[1] = target: PCP receptor; experiment: [3H]TCP radioreceptor assay (binding to PCP recognition sites); parameters: species or system rat (male Sprague-Dawley, whole brain); conditions: for Ki: [3H]TCP approx. 1 nM, rat brain membranes, mean of at least two determinations
Outline: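 Rat whole-brain membranes (Tris-HCl, pH 7.7), 0.5 mg protein/tube, incubated with ~1 nM [3H]TCP for 25 min at room temperature; non-specific binding defined with 100 μM PCP. Bound ligand collected by filtration and counted by scintillation; Ki from at least two determinations, or % inhibition at 10 μM.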

[2] = tested on: cultured cortical neurons; experiment: Antagonism of NMDA-induced neurotoxicity in cultured cortical neurons (LDH release); type: cell-based, mouse (Swiss-Webster); conditions: 500 μM NMDA, 30 min exposure, LDH 24 h later
Method: Antagonism of NMDA-induced Neurotoxicity in Cultured Neurons
Preparation of Cultured Cortical Neurons
Pregnant, Swiss-Webster mice were obtained from Taconic Farms (Germantown, New York) and sacrificed 16 days post conception. Fetuses were removed and placed in a sterile dish containing Hank's balanced salt solution (HBSS), pH 7.4. Brain cortices were dissected, meninges were removed, the tissue was minced and placed into a solution of HBSS containing 0.25% (w/v) trypsin at 37° C. for 15 minutes. Tissue was then triturated with a sterile pasteur pipet, diluted with minimal essential media (Gibco 330-1430), pH 7.4, supplemented with 10% horse serum, 10% fetal calf serum, 2 mM 1-glutamine, 21 mM d-glucose, 2.2 g/L sodium bicarbonate, 1000 U/mL penicillin, and 1,000 μg/mL streptomycin. Cells were plated onto Falcon primaria 96 well plates at a final density of 50,000 cells/well and incubated at 37 °C in the presence of 5% (v/v) carbon dioxide. After 5 days, plating media was replaced with maintenance media containing minimal essential media (Gibco 330-1430), pH 7.4, supplemented with 10% horse serum, […], 21 mM d-glucose, 2.2 g/L sodium bicarbonate, 1,000 U/mL penicillin, 1,000 μg/mL streptomycin, and 10 μM cytosine arabinoside. On days 7 and 10, media was replaced with maintenance media as above lacking the cytosine arabinoside. Experiments were conducted on day 13.
Neuroprotection Assessment
Day 13 cultured cortical neurons were washed twice with minimal essential media, pH 7.4 and then exposed for 30 minutes to 500 μM N-methyl-D-aspartic acid (NMDA) with or without varying concentrations of test agents. […] MK-801 and test agents were prepared in minimal essential media supplemented with 21 mM d-glucose and 2.2 g/L sodium bicarbonate (MEM). After 30 minutes, media was replaced with MEM alone. Exposure of neurons to test agents was limited to the NMDA treatment period. Twenty-four hours after removal of NMDA, an aliquot of media from each well was removed for assessment of cell injury by determining lactate dehydrogenase (LDH) activity by the method of Wroblewski and LaDue Proc. Soc. Exp. Biol. Med. 1955, 90, 210-213. The results are expressed as an IC50 (in nM) value (concentration causing 50% inhibition) for the antagonism of NMDA--inducedneurotoxicity. Table 3 summarizes the results obtained from the testing of representative compounds of the invention in the [^3 H]TCP radioreceptor assay as well as in the antagonism of NMDA-induced neurotoxicity in cultured neurons.

[3] = tested on: rat ischemia model; experiment: Middle cerebral artery occlusion (MCAo) model with reperfusion; type: in vivo, rat (male Long Evans hooded and male Sprague-Dawley); conditions: i.v. infusion started 30 min before occlusion
Method: Middle Cerebral Artery Occlusion (MCAo) Model with Reperfusion
A 3-vessel rat ischemia model similar to those that have been extensively described in the literature (e.g. Stroke 17, 738-743 (1986), Stroke 20, 513-518 (1989)) was utilized. Under isoflurane anesthesia the right middle cerebral artery (via an approach through the temporalis muscle) and both common carotid arteries were reversibly occluded for varying durations between 60 minutes and 120 minutes. Both male Long Evans hooded rats and male Sprague-Dawley rats weighing between 300 and 420 grams were used. The animals' temperature was maintained throughout the study with heat lamps. A femoral vein and the ipsilateral femoral artery were cannulated for intravenous infusion and arterial blood pressure measurements and blood samples. Infusions of the test compounds were initiated 30 minutes prior to occlusion at a rate of 40 microliters per minute. After reinitiation of blood flow the animals were allowed to regain consciousness. Six hours post-initiation of ischemia the animals were sacrificed and the extent of neuronal damage was quantified with TTC staining. The results are expressed as a percent inhibition (±SEM) of infarct and penumbra region.

c1ccc2c(c1)C1CC(c3ccoc3)(c3ccoc3)C2c2cccc[n+]21 (single isomer, unassigned; (+)) [Example 40(b), (+)-6,11-ethano-12,12-di(3-furanyl)-6,11-dihydrobenzo[b]quinolizinium chloride 3/2 hydrate]
Ki [1]: 1.66 nM | IC50 ([2]; Mus musculus, Cortical neurone): 20 nM | % Inhibition (± SEM) of infarct and penumbra region ([3]; 0.01 mg test compound/kg/min): 1 ± 31% | % Inhibition (± SEM) of infarct and penumbra region ([3]; 0.03 mg test compound/kg/min): 49 ± 25% | % Inhibition (± SEM) of infarct and penumbra region ([3]; 0.1 mg test compound/kg/min): 47 ± 18%

c1ccc(C2(c3ccccc3)CC3c4ccccc4C2c2cccc[n+]23)cc1 (centres unmarked) [17(b), 6,11-ethano-12,12-diphenyl-6,11-dihydrobenzo[b]quinolizinium chloride]
Ki [1]: 8.18 nM | IC50 [2]: 197 nM

CC12CC(c3ccccc3)(c3ccccc3)C(c3ccccc31)c1cccc[n+]12 (centres unmarked) [19(b), 6,11-ethano-12,12-diphenyl-6-methyl-6,11-dihydro-benzo[b]quinolizinium. Chloride]
Ki [1]: 6.8 nM | IC50 ([2]; Mus musculus, Cortical neurone): 102 nM

[Cl-].c1ccc2c(c1)C1CC(c3ccoc3)(c3ccoc3)C2c2cccc[n+]21 (centres unmarked) [39(c), 6,11-ethano-12,12-di(3-furanyl)-6,11-dihydrobenzo[b]quinolizinium chloride]
Ki [1]: 1.79 nM | IC50 ([2]; Mus musculus, Cortical neurone): 45.4 nM | % Inhibition (± SEM) of infarct and penumbra region ([3]; 0.03 mg test compound/kg/min): 20 ± 7% | % Inhibition (± SEM) of infarct and penumbra region ([3]; 0.1 mg test compound/kg/min): 34 ± 6%

CC12CC(c3cccs3)(c3cccs3)C(c3ccccc31)c1cccc[n+]12 (centres unmarked) [47(d), 6,11-ethano-12,12-di(2-thienyl)-6-methyl-6,11-dihydrobenzo[b]quinoliziniumchloride]
Ki [1]: 2.11 nM | IC50 ([2]; Mus musculus, Cortical neurone): 40 nM

c1csc(C2(c3cccs3)CC3c4ccccc4C2c2cccc[n+]23)c1 (centres unmarked) [48(b), 6,11-ethano-12,12-di(2-thienyl)-6,11-dihydrobenzo[b]quinolizinium chloride]
Ki [1]: 2.08 nM | IC50 [2]: 23 nM

CC12CC(c3ccoc3)(c3ccoc3)C(c3ccccc31)c1cccc[n+]12 (centres unmarked) [50(b), 6,11ethano-12,12-di(3-furanyl)-6-methyl-6,11-dihydrobenzo[b]quinolizinilium chloride]
Ki [1]: 1.24 nM | IC50 ([2]; Mus musculus, Cortical neurone): 22 nM

CC12c3ccccc3C(c3cccc[n+]31)C(c1ccccc1)(c1ccccc1)C21CC1 (centres unmarked) [51(c), 6,11-ethano-12,12-diphenyl-6-methyl-13,13-(spirocyclopropane)-6,11-dihydrobenzo[b]quinolizinium chloride]
Ki [1]: 22.3 nM | IC50 ([2]; Mus musculus, Cortical neurone): 83 nM

c1ccc2c(c1)C1CC(c3ccsc3)(c3ccsc3)C2c2cccc[n+]21 (centres unmarked) [52(F), 6,11-ethanol 12,12-di(3-thienyl)-6,11-dihydrobenzo[b]quinolizinium chloride]
Ki [1]: 1.82 nM | IC50 ([2]; Mus musculus, Cortical neurone): 39 nM

c1coc(C2(c3ccco3)CC3c4ccccc4C2c2cccc[n+]23)c1 (centres unmarked) [57(d), 6,11-ethano-12,12-di(2-furanyl)-6,11-dihydrobenzo[b]quinolizinium chloride]
Ki [1]: 1.9 nM | IC50 [2]: 36 nM

c1ccc2c(c1)-c1ccccc1C21CC2c3ccccc3C1c1cccc[n+]12 (centres unmarked) [58(c), 6,11-ethano-12,12-spiro-9H-fluorenyl-6,11-dihydrobenzo[b]quinolizinium chloride]
[3H]TCP percent inhibition @ 10 μm ([1]; inhibition of [3H]TCP binding at 10 μM): 32% | IC50 ([2]; Mus musculus, Cortical neurone): > 1000 nM

c1ccc2c(c1)C1CC(c3ccn[nH]3)(c3ccn[nH]3)C2c2cccc[n+]21 (centres unmarked) [63(d), 6,11-ethano-12,12-di(5-pyrazolyl)-6,11-dihydrobenzo[b]quinoliziniumperchlorate]
Ki [1]: 10 nM | IC50 [2]: 1630 nM

c1ccc2c(c1)C1CC(c3ccn[nH]3)(c3ccn[nH]3)C2c2cccc[n+]21 (centres unmarked) [64(f), 11-ethano-12,12-di-[(pyrazol-5-yl)-6,11-dihydrobenzo[b]quinolizinium chloride]
Ki [1]: 13 nM | IC50 [2]: 360 nM

N#CC12CC(c3ccoc3)(c3ccoc3)C(c3ccccc31)c1cccc[n+]12 (centres unmarked) [171(b), 6,11-ethano-12,12-di(3-furyl)-6-cyano-6,11-dihydrobenzo[b]quinolizinium chloride]
Ki [1]: 10.2 nM | IC50 ([2]; Mus musculus, Cortical neurone): 26.5 nM

Oc1ccc2c(c1)C1c3cccc[n+]3C2CC1(c1cc[nH]n1)c1cc[nH]n1 (centres unmarked) [195(c), 12,12-di(pyrazol-3-yl)-9-hydroxy-6,11-ethano-6,11-dihydrobenzo[b]quinolizinium chloride]
Ki [1]: 12.6 nM | IC50 ([2]; Mus musculus, Cortical neurone): 30.8 nM

Fc1ccc2c(c1)C1c3cccc[n+]3C2CC1(c1ccoc1)c1ccoc1.[O-][Cl+3]([O-])([O-])[O-] (centres unmarked) [196(c), 12,12-di(3-furyl)-9-fluoro-6,11-ethano-6,11-dihydrobenzo[b]quinolizinium perchlorate]
Ki [1]: 4.11 nM | IC50 ([2]; Mus musculus, Cortical neurone): 80 nM

Oc1cccc2c1C1c3cccc[n+]3C2CC1(c1ccoc1)c1ccoc1.[Cl-] (centres unmarked) [Example 68(c), 6,11-ethano-12,12-di(3-furyl)-10-hydroxy-6,11-dihydrobenzo[b]quinoliziniumchloride]
Ki [1]: 1.5 nM | % Inhibition (± SEM) of infarct and penumbra region ([3]; 0.1 mg test compound/kg/min): 34 ± 14%

Oc1ccc2c(c1)C1c3cccc[n+]3C2CC1(c1ccoc1)c1ccoc1 (centres unmarked) [Example 193, 12,12-di(3-furyl)-9-hydroxy-6,11-ethano-6,11-dihydrobenzo[b]quinolizinium chloride]
Ki [1]: 2.13 nM | IC50 ([2]; Mus musculus, Cortical neurone): 11.8 nM
